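Briefly, cells in 96-well plates were exposed to five compound concentrations for 48 h, and endpoints were estimated by linear interpolation. Here, GI50 denotes the concentration required for 50% inhibition of growth. The concentration for full growth arrest is given as TGI.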
Tests used:
Assay in all cases: NCI-60 cell line screen, 48 h
NCI/ADR-RES ovarian = system: NCI/ADR-RES ovarian
MCF7 breast = system: MCF7 breast
K-562 leukemia = system: K-562 leukemia
SK-MEL-28 melanoma = system: SK-MEL-28 melanoma
HCC-2998 colon = system: HCC-2998 colon
A498 renal = system: A498 renal
EKVX NSCLC = system: EKVX NSCLC
KM12 colon = system: KM12 colon
RPMI-8226 leukemia = system: RPMI-8226 leukemia
SNB-19 CNS = system: SNB-19 CNS
MDA-MB-231 breast = system: MDA-MB-231 breast
PC-3 prostate = system: PC-3 prostate
UACC-62 melanoma = system: UACC-62 melanoma
IGROV1 ovarian = system: IGROV1 ovarian
OVCAR-5 ovarian = system: OVCAR-5 ovarian
COLO 205 colon = system: COLO 205 colon
HCT-116 colon = system: HCT-116 colon
TK-10 renal = system: TK-10 renal
SK-OV-3 ovarian = system: SK-OV-3 ovarian
SK-MEL-5 melanoma = system: SK-MEL-5 melanoma
HT29 colon = system: HT29 colon
ACHN renal = system: ACHN renal
SK-MEL-2 melanoma = system: SK-MEL-2 melanoma
RXF 393 renal = system: RXF 393 renal
NCI-H23 lung = system: NCI-H23 lung
T-47D breast = system: T-47D breast
CAKI-1 renal = system: CAKI-1 renal
MDA-MB-435 = system: MDA-MB-435
NCI-H226 lung = system: NCI-H226 lung
MALME-3M melanoma = system: MALME-3M melanoma
OVCAR-8 ovarian = system: OVCAR-8 ovarian
OVCAR-4 ovarian = system: OVCAR-4 ovarian
BT-549 breast = system: BT-549 breast
HL-60(TB) leukemia = system: HL-60(TB) leukemia
SF-539 CNS = system: SF-539 CNS
SN12C renal = system: SN12C renal
SNB-75 CNS = system: SNB-75 CNS
HS 578T breast = system: HS 578T breast
786-0 renal = system: 786-0 renal
M14 melanoma = system: M14 melanoma
OVCAR-3 ovarian = system: OVCAR-3 ovarian
DU-145 prostate = system: DU-145 prostate
SW-620 colon = system: SW-620 colon
UACC-257 melanoma = system: UACC-257 melanoma
SF-295 CNS = system: SF-295 CNS
MOLT-4 leukemia = system: MOLT-4 leukemia
LOX IMVI melanoma = system: LOX IMVI melanoma
U251 CNS = system: U251 CNS
A549 NSCLC = system: A549 NSCLC
SF-268 CNS = system: SF-268 CNS
NCI-H522 lung = system: NCI-H522 lung
CCRF-CEM leukemia = system: CCRF-CEM leukemia
HOP-62 NSCLC = system: HOP-62 NSCLC
HCT-15 colon = system: HCT-15 colon
HOP-92 NSCLC = system: HOP-92 NSCLC
NCI-H460 lung = system: NCI-H460 lung
UO-31 renal = system: UO-31 renal
SR leukemia = system: SR leukemia

For `N#Cc1c(-c2ccccc2)nc2c(c(-c3ccccc3)nn2-c2ccccc2)c1-c1ccc(O)cc1`, which GI50 (NCI/ADR-RES ovarian) is on record?
The GI50 was 2.27 µM.

And the TGI (NCI/ADR-RES ovarian)?
Its TGI is 5.62 µM.

What about the GI50 (MCF7 breast) of the same compound?
The GI50 was 1.86 µM.

And the TGI (MCF7 breast)?
Its TGI is 4.76 µM.

And the GI50 (K-562 leukemia)?
The GI50 was 2.68 µM.

What about the TGI (K-562 leukemia) of the same compound?
Its TGI is greater than 100 µM.

What about the GI50 (SK-MEL-28 melanoma) of the same compound?
The GI50 was 1.58 µM.

And the TGI (SK-MEL-28 melanoma)?
Its TGI is 3.05 µM.

What about the GI50 (HCC-2998 colon) of the same compound?
The GI50 was 1.84 µM.

And the TGI (HCC-2998 colon)?
Its TGI is 3.47 µM.

What about the GI50 (A498 renal) of the same compound?
Its GI50 is 1.66 µM.

What about the TGI (A498 renal) of the same compound?
The TGI was 3.07 µM.

What about the GI50 (EKVX NSCLC) of the same compound?
The GI50 was 1.92 µM.

And the TGI (EKVX NSCLC)?
The TGI was 5.1 µM.

And the GI50 (KM12 colon)?
The GI50 was 2.02 µM.

And the TGI (KM12 colon)?
The TGI was 4.76 µM.

And the GI50 (RPMI-8226 leukemia)?
Its GI50 is 2.42 µM.

And the TGI (RPMI-8226 leukemia)?
The TGI was 17.9 µM.

What about the GI50 (SNB-19 CNS) of the same compound?
Its GI50 is 1.9 µM.

And the TGI (SNB-19 CNS)?
Its TGI is 3.8 µM.

And the GI50 (MDA-MB-231 breast)?
The GI50 was 1.7 µM.

And the TGI (MDA-MB-231 breast)?
The TGI was 3.31 µM.

And the GI50 (PC-3 prostate)?
Its GI50 is 1.82 µM.

What about the TGI (PC-3 prostate) of the same compound?
The TGI was 3.78 µM.

What about the GI50 (UACC-62 melanoma) of the same compound?
Its GI50 is 1.7 µM.

And the TGI (UACC-62 melanoma)?
Its TGI is 3.18 µM.

And the GI50 (IGROV1 ovarian)?
Its GI50 is 1.8 µM.

What about the TGI (IGROV1 ovarian) of the same compound?
The TGI was 3.62 µM.

What about the GI50 (OVCAR-5 ovarian) of the same compound?
Its GI50 is 1.75 µM.

What about the TGI (OVCAR-5 ovarian) of the same compound?
The TGI was 3.41 µM.

And the GI50 (COLO 205 colon)?
Its GI50 is 2.61 µM.

What about the TGI (COLO 205 colon) of the same compound?
The TGI was 6.31 µM.

What about the GI50 (HCT-116 colon) of the same compound?
The GI50 was 2.63 µM.

And the TGI (HCT-116 colon)?
The TGI was 7.32 µM.

What about the GI50 (TK-10 renal) of the same compound?
The GI50 was 2.89 µM.

And the TGI (TK-10 renal)?
Its TGI is 8.19 µM.

What about the GI50 (SK-OV-3 ovarian) of the same compound?
Its GI50 is 2.87 µM.

What about the TGI (SK-OV-3 ovarian) of the same compound?
The TGI was 8.48 µM.

And the GI50 (SK-MEL-5 melanoma)?
Its GI50 is 1.76 µM.

What about the TGI (SK-MEL-5 melanoma) of the same compound?
The TGI was 3.19 µM.

And the GI50 (HT29 colon)?
Its GI50 is 2.51 µM.

What about the TGI (HT29 colon) of the same compound?
The TGI was 6.44 µM.

What about the GI50 (ACHN renal) of the same compound?
The GI50 was 2.24 µM.

What about the TGI (ACHN renal) of the same compound?
The TGI was 5.89 µM.

What about the GI50 (SK-MEL-2 melanoma) of the same compound?
Its GI50 is 2.39 µM.

And the TGI (SK-MEL-2 melanoma)?
Its TGI is 5.65 µM.

And the GI50 (RXF 393 renal)?
The GI50 was 1.03 µM.

What about the TGI (RXF 393 renal) of the same compound?
The TGI was 2.35 µM.

What about the GI50 (NCI-H23 lung) of the same compound?
The GI50 was 1.78 µM.

What about the TGI (NCI-H23 lung) of the same compound?
Its TGI is 3.84 µM.

What about the GI50 (T-47D breast) of the same compound?
The GI50 was 3.05 µM.

And the TGI (T-47D breast)?
The TGI was 23.8 µM.

What about the GI50 (CAKI-1 renal) of the same compound?
Its GI50 is 2.48 µM.

And the TGI (CAKI-1 renal)?
The TGI was 6.7 µM.

And the GI50 (MDA-MB-435)?
The GI50 was 1.86 µM.

And the TGI (MDA-MB-435)?
Its TGI is 3.71 µM.

What about the GI50 (NCI-H226 lung) of the same compound?
Its GI50 is 1.97 µM.

What about the TGI (NCI-H226 lung) of the same compound?
Its TGI is 4.51 µM.

What about the GI50 (MALME-3M melanoma) of the same compound?
Its GI50 is 1.62 µM.

And the TGI (MALME-3M melanoma)?
Its TGI is 3.83 µM.

And the GI50 (OVCAR-8 ovarian)?
The GI50 was 3.14 µM.

And the TGI (OVCAR-8 ovarian)?
The TGI was 11.7 µM.

What about the GI50 (OVCAR-4 ovarian) of the same compound?
Its GI50 is 1.95 µM.

And the TGI (OVCAR-4 ovarian)?
The TGI was 4.66 µM.

And the GI50 (BT-549 breast)?
Its GI50 is 2 µM.

And the TGI (BT-549 breast)?
The TGI was 4.45 µM.

And the GI50 (HL-60(TB) leukemia)?
The GI50 was 3.52 µM.

And the TGI (HL-60(TB) leukemia)?
Its TGI is 23.7 µM.

And the GI50 (SF-539 CNS)?
The GI50 was 1.25 µM.

And the TGI (SF-539 CNS)?
The TGI was 2.76 µM.

And the GI50 (SN12C renal)?
The GI50 was 1.64 µM.

And the TGI (SN12C renal)?
Its TGI is 3.04 µM.

And the GI50 (SNB-75 CNS)?
The GI50 was 2.03 µM.

And the TGI (SNB-75 CNS)?
Its TGI is 7.28 µM.

What about the GI50 (HS 578T breast) of the same compound?
Its GI50 is 1.41 µM.

What about the TGI (HS 578T breast) of the same compound?
The TGI was 4.46 µM.

What about the GI50 (786-0 renal) of the same compound?
Its GI50 is 2.16 µM.

And the TGI (786-0 renal)?
Its TGI is 5.35 µM.

What about the GI50 (M14 melanoma) of the same compound?
The GI50 was 2.27 µM.

What about the TGI (M14 melanoma) of the same compound?
The TGI was 5.48 µM.

What about the GI50 (OVCAR-3 ovarian) of the same compound?
The GI50 was 2 µM.

And the TGI (OVCAR-3 ovarian)?
Its TGI is 4.45 µM.

What about the GI50 (DU-145 prostate) of the same compound?
Its GI50 is 2.62 µM.

And the TGI (DU-145 prostate)?
Its TGI is 8.53 µM.

What about the GI50 (SW-620 colon) of the same compound?
The GI50 was 1.86 µM.

And the TGI (SW-620 colon)?
Its TGI is 3.53 µM.

And the GI50 (UACC-257 melanoma)?
The GI50 was 3.13 µM.

What about the TGI (UACC-257 melanoma) of the same compound?
Its TGI is 12.1 µM.

And the GI50 (SF-295 CNS)?
Its GI50 is 1.88 µM.

And the TGI (SF-295 CNS)?
Its TGI is 4.29 µM.

What about the GI50 (MOLT-4 leukemia) of the same compound?
Its GI50 is 2.48 µM.

What about the TGI (MOLT-4 leukemia) of the same compound?
Its TGI is 7.86 µM.

What about the GI50 (LOX IMVI melanoma) of the same compound?
Its GI50 is 1.68 µM.

And the TGI (LOX IMVI melanoma)?
Its TGI is 3.05 µM.

What about the GI50 (U251 CNS) of the same compound?
Its GI50 is 1.63 µM.

What about the TGI (U251 CNS) of the same compound?
The TGI was 3.97 µM.

And the GI50 (A549 NSCLC)?
Its GI50 is 2.57 µM.

What about the TGI (A549 NSCLC) of the same compound?
Its TGI is 6.87 µM.

What about the GI50 (SF-268 CNS) of the same compound?
The GI50 was 2.83 µM.

What about the TGI (SF-268 CNS) of the same compound?
Its TGI is 9.14 µM.

And the GI50 (NCI-H522 lung)?
The GI50 was 2.32 µM.

And the TGI (NCI-H522 lung)?
Its TGI is 6.03 µM.

And the GI50 (CCRF-CEM leukemia)?
Its GI50 is 3.13 µM.

And the TGI (CCRF-CEM leukemia)?
The TGI was 13.4 µM.

And the GI50 (HOP-62 NSCLC)?
Its GI50 is 2.12 µM.

What about the TGI (HOP-62 NSCLC) of the same compound?
Its TGI is 4.49 µM.

What about the GI50 (HCT-15 colon) of the same compound?
Its GI50 is 1.62 µM.

What about the TGI (HCT-15 colon) of the same compound?
Its TGI is 3.79 µM.

What about the GI50 (HOP-92 NSCLC) of the same compound?
The GI50 was 2.06 µM.

And the TGI (HOP-92 NSCLC)?
The TGI was 4.21 µM.

And the GI50 (NCI-H460 lung)?
Its GI50 is 1.73 µM.

What about the TGI (NCI-H460 lung) of the same compound?
The TGI was 3.26 µM.

And the GI50 (UO-31 renal)?
Its GI50 is 2.02 µM.

What about the TGI (UO-31 renal) of the same compound?
Its TGI is 4.16 µM.

And the GI50 (SR leukemia)?
The GI50 was 2.95 µM.

And the TGI (SR leukemia)?
Its TGI is greater than 100 µM.

From PubChem BioAssay (NCI)
